Where two headings read alike, the source gives them in different places.
Tests used:
Format in all cases: cell-based
human M1 receptor = biological target: T1, human M1 receptor (Homo sapiens, UniProt P11229); assay: In vitro functional assay of muscarinic acetylcholine receptor activity (aequorin calcium flux, antagonist mode vs EC80 acetylcholine), M1
T1 sequence (P11229 1-460): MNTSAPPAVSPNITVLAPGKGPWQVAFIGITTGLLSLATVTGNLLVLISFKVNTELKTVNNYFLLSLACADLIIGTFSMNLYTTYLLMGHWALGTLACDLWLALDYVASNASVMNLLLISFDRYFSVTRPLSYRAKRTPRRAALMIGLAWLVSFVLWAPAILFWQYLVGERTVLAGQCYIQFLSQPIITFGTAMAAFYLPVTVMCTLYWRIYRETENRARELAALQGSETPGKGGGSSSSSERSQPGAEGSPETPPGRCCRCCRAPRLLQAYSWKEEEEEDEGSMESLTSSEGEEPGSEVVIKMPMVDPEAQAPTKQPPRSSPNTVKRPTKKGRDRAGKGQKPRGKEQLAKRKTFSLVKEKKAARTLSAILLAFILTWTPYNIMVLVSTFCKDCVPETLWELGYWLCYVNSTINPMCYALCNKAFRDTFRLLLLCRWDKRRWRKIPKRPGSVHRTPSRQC
In short: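 CHO-K1 cells stably co-expressing human M1 and aequorin were loaded with 5 uM coelenterazine h for 4 h at room temperature in the dark. IC50 came from the drop in luminescence.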

M3 = M3 (Homo sapiens, UniProt P20309); assay: In vitro functional assay of muscarinic acetylcholine receptor activity, M3
M2 = biological target: T2, M2 (Homo sapiens, UniProt P08172); assay: In vitro functional assay of muscarinic acetylcholine receptor activity, M2
T2 sequence (P08172 1-466): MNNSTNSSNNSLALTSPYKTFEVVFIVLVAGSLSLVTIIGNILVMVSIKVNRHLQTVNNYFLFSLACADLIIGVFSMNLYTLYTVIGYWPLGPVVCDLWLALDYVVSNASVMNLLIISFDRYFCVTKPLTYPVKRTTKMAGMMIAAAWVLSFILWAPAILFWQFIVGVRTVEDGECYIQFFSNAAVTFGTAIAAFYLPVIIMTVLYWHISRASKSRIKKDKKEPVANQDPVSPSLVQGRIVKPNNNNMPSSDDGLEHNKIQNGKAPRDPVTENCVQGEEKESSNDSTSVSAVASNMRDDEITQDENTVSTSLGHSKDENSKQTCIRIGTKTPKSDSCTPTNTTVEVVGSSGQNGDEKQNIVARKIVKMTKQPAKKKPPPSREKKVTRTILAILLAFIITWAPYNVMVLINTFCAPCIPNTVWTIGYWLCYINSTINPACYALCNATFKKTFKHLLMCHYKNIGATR

[1] = antagonist IC50 at M3, read-out: M3 IC50
[2] = antagonist IC50 at M2, read-out: M2 IC50
[3] = CHO-K1 cells stably expressing human M1 receptor with Aequorin, decrease in EC80 acetylcholine response, read-out: M1 IC50

Sequence of M3 (P20309 whole entry): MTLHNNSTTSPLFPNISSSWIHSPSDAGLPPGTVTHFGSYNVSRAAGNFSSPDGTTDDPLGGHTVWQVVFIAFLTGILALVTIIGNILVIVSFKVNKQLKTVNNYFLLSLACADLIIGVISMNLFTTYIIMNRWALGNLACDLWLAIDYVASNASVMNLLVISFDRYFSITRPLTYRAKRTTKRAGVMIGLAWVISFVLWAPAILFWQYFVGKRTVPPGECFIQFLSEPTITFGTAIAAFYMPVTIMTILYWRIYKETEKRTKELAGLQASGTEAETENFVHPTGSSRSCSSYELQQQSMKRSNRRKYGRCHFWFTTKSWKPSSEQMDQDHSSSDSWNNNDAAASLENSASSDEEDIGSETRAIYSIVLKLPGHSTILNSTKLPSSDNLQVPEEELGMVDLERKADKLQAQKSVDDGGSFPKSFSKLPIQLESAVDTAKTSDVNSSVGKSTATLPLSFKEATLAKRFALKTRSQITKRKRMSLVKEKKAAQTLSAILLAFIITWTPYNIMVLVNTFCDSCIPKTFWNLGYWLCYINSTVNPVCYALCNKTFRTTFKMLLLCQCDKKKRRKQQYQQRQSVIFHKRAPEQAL

| Structure (SMILES) | IC50 (human M1 receptor) | IC50 (M3; [1]) | IC50 (M2; [2]) | IC50 (human M1 receptor; [3]) | IC50 (M3) | IC50 (M2) |
| --- | --- | --- | --- | --- | --- | --- |
| N#Cc1ccc(N2C3CCC2CN(C(=O)CCNCc2cccc4nsnc24)C3)nc1 [Example 150, 6-[3-(3-{[(2,1,3-benzothiadiazol-4-yl)methyl]amino}propanoyl)-3,8-diazabicyclo[3.2.1]octan-8-yl]pyridine-3-carbonitrile] | 0.1 to 1 µM | > 10 µM | 1 to 10 µM |  |  |  |
| Cc1cc(C#N)ncc1N1CCN(C(=O)CCNCc2c(F)ccc3nccn23)[C@@H](C)C1 [Example 151, 5-[(3S)-4-{3-[({6-fluoroimidazo[1,2-a]pyridin-5-yl}methyl)amino]propanoyl}-3-methylpiperazin-1-yl]-4-methylpyridine-2-carbonitrile] |  | > 10 µM | 1 to 10 µM | 1 to 10 µM |  |  |
| O=C(CCNCc1c(F)ccc2nccn12)N1CC2CCC(C1)N2c1ccc(C(F)(F)F)cn1 [Example 152, 3-[({6-fluoroimidazo[1,2-a]pyridin-5-yl}methyl)amino]-1-{8-[5-(trifluoromethyl)pyridin-2-yl]-3,8-diazabicyclo[3.2.1]octan-3-yl}propan-1-one] | < 0.1 µM | > 10 µM | 1 to 10 µM |  |  |  |
| Cc1cc(C(F)(F)F)ncc1N1CCN(C(=O)CCS(=O)(=O)c2cccc3ncsc23)[C@@H](C)C1 [Example 153, 3-(1,3-benzothiazole-7-sulfonyl)-1-[(2S)-2-methyl-4-[4-methyl-6-(trifluoromethyl)pyridin-3-yl]piperazin-1-yl]propan-1-one] |  | 0.1 to 1 µM | 0.1 to 1 µM | < 0.1 µM |  |  |
| N#Cc1ccc(N2C3COCC2CN(C(=O)CCCc2cccc4ncccc24)C3)nc1 [Example 154, 6-{7-[4-(quinolin-5-yl)butanoyl]-3-oxa-7,9-diazabicyclo[3.3.1]nonan-9-yl}pyridine-3-carbonitrile] | < 0.1 µM |  | 1 to 10 µM |  | 0.1 to 1 µM |  |
| N#Cc1ccc(N2C3CCC2CN(C(=O)CCNCc2cccc4ncccc24)C3)nc1 [Example 155, 6-[3-(3-{[(quinolin-5-yl)methyl]amino}propanoyl)-3,8-diazabicyclo[3.2.1]octan-8-yl]pyridine-3-carbonitrile] |  | > 10 µM | > 10 µM | 1 to 10 µM |  |  |
| O=C(CCNCc1cccc2ncnn12)N1CC2CCC(C1)N2c1ccc(Br)cn1 [Example 156, 1-[8-(5-bromopyridin-2-yl)-3,8-diazabicyclo[3.2.1]octan-3-yl]-3-[({[1,2,4]triazolo[1,5-a]pyridin-5-yl}methyl)amino]propan-1-one] | 0.1 to 1 µM | 1 to 10 µM | 1 to 10 µM |  |  |  |
| O=C(CCNCc1cccc2ncnn12)N1CC2CCC(C1)N2c1ccc(Cl)cn1 [Example 157, 1-[8-(5-chloropyridin-2-yl)-3,8-diazabicyclo[3.2.1]octan-3-yl]-3-[({[1,2,4]triazolo[1,5-a]pyridin-5-yl}methyl)amino]propan-1-one] | < 0.1 µM | > 10 µM | > 10 µM |  |  |  |
| N#Cc1ccc(N2C3CCC2CN(C(=O)C(F)(F)CNCc2cccc4ncsc24)C3)nc1 [Example 158, 6-[3-(3-{[(1,3-benzothiazol-7-yl)methyl]amino}-2,2-difluoropropanoyl)-3,8-diazabicyclo[3.2.1]octan-8-yl]pyridine-3-carbonitrile] | 0.1 to 1 µM | 1 to 10 µM |  |  |  | 0.1 to 1 µM |
| N#Cc1cc(N2C3CCC2CN(C(=O)CCNCc2cccc4ncsc24)C3)ccn1 [Example 159, 4-[3-(3-{[(1,3-benzothiazol-7-yl)methyl]amino}propanoyl)-3,8-diazabicyclo[3.2.1]octan-8-yl]pyridine-2-carbonitrile] | < 0.1 µM | > 10 µM | 1 to 10 µM |  |  |  |
| N#Cc1ccc(N2CC3CCC(C2)N3C(=O)CCNCc2cccc3ncsc23)nc1 [Example 160, 6-[8-(3-{[(1,3-benzothiazol-7-yl)methyl]amino}propanoyl)-3,8-diazabicyclo[3.2.1]octan-3-yl]pyridine-3-carbonitrile] | 0.1 to 1 µM | > 10 µM | 1 to 10 µM |  |  |  |
| Cc1cc(C#N)cnc1N1CC2CCC(C1)N2C(=O)CCNCc1cccc2ncsc12 [Example 161, 6-[8-(3-{[(1,3-benzothiazol-7-yl)methyl]amino}propanoyl)-3,8-diazabicyclo[3.2.1]octan-3-yl]-5-methylpyridine-3-carbonitrile] | 0.1 to 1 µM | > 10 µM | 1 to 10 µM |  |  |  |
| N#Cc1ccc(N2CC3CCC2CN3C(=O)CCNCc2cccc3ncsc23)nc1 (stereo not drawn) [Example 162, 6-[5-(3-{[(1,3-benzothiazol-7-yl)methyl]amino}propanoyl)-2,5-diazabicyclo[2.2.2]octan-2-yl]pyridine-3-carbonitrile] |  | 1 to 10 µM | 1 to 10 µM | 0.1 to 1 µM |  |  |
| O=C(CCNCc1cccn2nccc12)N1CC2CCC(C1)N2c1ccc(Cl)cn1 [Example 163, 1-[8-(5-chloropyridin-2-yl)-3,8-diazabicyclo[3.2.1]octan-3-yl]-3-[({pyrazolo[1,5-a]pyridin-4-yl}methyl)amino]propan-1-one] | 0.1 to 1 µM | > 10 µM | 1 to 10 µM |  |  |  |
| N#Cc1ccc(N2C3CCC2CN(C(=O)CCN(Cc2cccc4ncnn24)C2CC2)C3)nc1 [Example 164, 6-(3-{3-[cyclopropyl({[1,2,4]triazolo[1,5-a]pyridin-5-yl}methyl)amino]propanoyl}-3,8-diazabicyclo[3.2.1]octan-8-yl)pyridine-3-carbonitrile] | < 0.1 µM | 1 to 10 µM | 1 to 10 µM |  |  |  |
| N#Cc1ccc(N2C3CCC2CN(C(=O)CCNCc2cccn4nccc24)C3)nc1 [Example 165, 6-(3-{3-[({pyrazolo[1,5-a]pyridin-4-yl}methyl)amino]propanoyl}-3,8-diazabicyclo[3.2.1]octan-8-yl)pyridine-3-carbonitrile] | 0.1 to 1 µM | 1 to 10 µM | 1 to 10 µM |  |  |  |
| N#Cc1ccc(N2C3CCC2CN(C(=O)CNCCc2cccc4ncsc24)C3)nc1 [Example 166, 6-[3-(2-{[2-(1,3-benzothiazol-7-yl)ethyl]amino}acetyl)-3,8-diazabicyclo[3.2.1]octan-8-yl]pyridine-3-carbonitrile] | 0.1 to 1 µM | 1 to 10 µM | 1 to 10 µM |  |  |  |
| O=C(CCNCc1c(F)ccc2nccn12)N1CC2CCC(C1)N2c1ccc(Cl)cn1 [Example 167, 1-[8-(5-chloropyridin-2-yl)-3,8-diazabicyclo[3.2.1]octan-3-yl]-3-[({6-fluoroimidazo[1,2-a]pyridin-5-yl}methyl)amino]propan-1-one] | < 0.1 µM | > 10 µM | 1 to 10 µM |  |  |  |
| Cc1nc2cccc(CNCCC(=O)N3CC4CCC(C3)N4c3ccc(C#N)cn3)n2n1 [Example 168, 6-(3-{3-[({2-methyl-[1,2,4]triazolo[1,5-a]pyridin-5-yl}methyl)amino]propanoyl}-3,8-diazabicyclo[3.2.1]octan-8-yl)pyridine-3-carbonitrile] | 0.1 to 1 µM | > 10 µM | 1 to 10 µM |  |  |  |
| CN(CCC(=O)N1CC2CCC(C1)N2c1ccc(C#N)cn1)Cc1cccc2ncsc12 [Example 169, 6-[3-(3-{[(1,3-benzothiazol-7-yl)methyl](methyl)amino}propanoyl)-3,8-diazabicyclo[3.2.1]octan-8-yl]pyridine-3-carbonitrile] | 0.1 to 1 µM | 1 to 10 µM |  |  |  | 0.1 to 1 µM |
| CN(CCC(=O)N1CC2CCC(C1)N2c1ccc(C#N)cn1)Cc1cccc2ncnn12 [Example 170, 6-(3-{3-[methyl({[1,2,4]triazolo[1,5-a]pyridin-5-yl}methyl)amino]propanoyl}-3,8-diazabicyclo[3.2.1]octan-8-yl)pyridine-3-carbonitrile] | 0.1 to 1 µM | 1 to 10 µM | 1 to 10 µM |  |  |  |
| N#Cc1ccc(N2C3CCC2CN(C(=O)CCNCc2cccc4ncnn24)C3)cc1 [Example 171, 4-(3-{3-[({[1,2,4]triazolo[1,5-a]pyridin-5-yl}methyl)amino]propanoyl}-3,8-diazabicyclo[3.2.1]octan-8-yl)benzonitrile] | 0.1 to 1 µM | > 10 µM | > 10 µM |  |  |  |
| O=C(CCNCc1c(F)ccc2nccn12)N1CC2CCC(C1)N2c1ccc(C2CC2)cn1 [Example 172, 1-[8-(5-cyclopropylpyridin-2-yl)-3,8-diazabicyclo[3.2.1]octan-3-yl]-3-[({6-fluoroimidazo[1,2-a]pyridin-5-yl}methyl)amino]propan-1-one] |  | > 10 µM | 1 to 10 µM | 1 to 10 µM |  |  |

Source: patent publication US11512090B2, “Muscarinic acetylcholine M1 receptor antagonists” (PIPELINE THERAPEUTICS, INC., priority 2018, dated 2022)
